Reference: the kinase profiling compilation of Christmann-Franck et al. (2016)
Values belong to the molecule of their own block, whether it stands above or below them.

Experiments:
Assay in all cases: radiometric filter-binding kinase assay
BRSK1 (human) = BRSK1 (human) (UniProt Q8TDC3)
RIPK2 (human) = RIPK2 (human) (UniProt O43353)
MAP2K6 (human) = MAP2K6 (human) (UniProt P52564)
RPS6KA3 KD1 KD2 (human) = RPS6KA3 KD1 KD2 (human) (UniProt P51812)
[1] = test system: SGK1 (human), O00141 [S422D]
SRPK1 (human) = SRPK1 (human) (UniProt Q96SB4)
PRKCA (human) = PRKCA (human) (UniProt P17252)
PHKG1 (human) = PHKG1 (human) (UniProt Q16816)
MAPKAPK5 (human) = MAPKAPK5 (human) (UniProt Q8IW41)
AURKA (human) = AURKA (human) (UniProt O14965)
MAPK10 (human) = MAPK10 (human) (UniProt P53779)
AURKB (human) = AURKB (human) (UniProt Q96GD4)
MAP2K2 (human) = MAP2K2 (human) (UniProt P36507)
ERBB4 (human) = ERBB4 (human) (UniProt Q15303)
[2] = test system: PAK2 (human), Q13177 [T402E]
PIM3 (human) = PIM3 (human) (UniProt Q86V86)
BTK (human) = BTK (human) (UniProt Q06187)
EPHA2 (human) = EPHA2 (human) (UniProt P29317)
MELK (human) = MELK (human) (UniProt Q14680)
MAPKAPK3 (human) = MAPKAPK3 (human) (UniProt Q16644)
FLT1 (human) = FLT1 (human) (UniProt P17948)
FGFR1 (human) = FGFR1 (human) (UniProt P11362)
CDK2 CCNA2 (human) = CDK2 CCNA2 (human) (UniProt P20248+P24941)
DYRK2 (human) = DYRK2 (human) (UniProt Q92630)
CHEK1 (human) = CHEK1 (human) (UniProt O14757)
PIM2 (human) = PIM2 (human) (UniProt Q9P1W9)
CSNK2A1 (human) = CSNK2A1 (human) (UniProt P68400)
GCK (human) = GCK (human) (UniProt Q12851)
MAPK12 (human) = MAPK12 (human) (UniProt P53778)
TAOK1 (human) = TAOK1 (human) (UniProt Q7L7X3)
INSRR (human) = INSRR (human) (UniProt P14616)
MAPK15 (human) = MAPK15 (human) (UniProt Q8TD08)
MST4 (human) = MST4 (human) (UniProt Q9P289)
EEF2K (human) = EEF2K (human) (UniProt O00418)
PRKACA (human) = PRKACA (human) (UniProt P17612)
MINK1 (human) = MINK1 (human) (UniProt Q8N4C8)

ERBB4 (human), sequence (Q15303 whole entry, looked up): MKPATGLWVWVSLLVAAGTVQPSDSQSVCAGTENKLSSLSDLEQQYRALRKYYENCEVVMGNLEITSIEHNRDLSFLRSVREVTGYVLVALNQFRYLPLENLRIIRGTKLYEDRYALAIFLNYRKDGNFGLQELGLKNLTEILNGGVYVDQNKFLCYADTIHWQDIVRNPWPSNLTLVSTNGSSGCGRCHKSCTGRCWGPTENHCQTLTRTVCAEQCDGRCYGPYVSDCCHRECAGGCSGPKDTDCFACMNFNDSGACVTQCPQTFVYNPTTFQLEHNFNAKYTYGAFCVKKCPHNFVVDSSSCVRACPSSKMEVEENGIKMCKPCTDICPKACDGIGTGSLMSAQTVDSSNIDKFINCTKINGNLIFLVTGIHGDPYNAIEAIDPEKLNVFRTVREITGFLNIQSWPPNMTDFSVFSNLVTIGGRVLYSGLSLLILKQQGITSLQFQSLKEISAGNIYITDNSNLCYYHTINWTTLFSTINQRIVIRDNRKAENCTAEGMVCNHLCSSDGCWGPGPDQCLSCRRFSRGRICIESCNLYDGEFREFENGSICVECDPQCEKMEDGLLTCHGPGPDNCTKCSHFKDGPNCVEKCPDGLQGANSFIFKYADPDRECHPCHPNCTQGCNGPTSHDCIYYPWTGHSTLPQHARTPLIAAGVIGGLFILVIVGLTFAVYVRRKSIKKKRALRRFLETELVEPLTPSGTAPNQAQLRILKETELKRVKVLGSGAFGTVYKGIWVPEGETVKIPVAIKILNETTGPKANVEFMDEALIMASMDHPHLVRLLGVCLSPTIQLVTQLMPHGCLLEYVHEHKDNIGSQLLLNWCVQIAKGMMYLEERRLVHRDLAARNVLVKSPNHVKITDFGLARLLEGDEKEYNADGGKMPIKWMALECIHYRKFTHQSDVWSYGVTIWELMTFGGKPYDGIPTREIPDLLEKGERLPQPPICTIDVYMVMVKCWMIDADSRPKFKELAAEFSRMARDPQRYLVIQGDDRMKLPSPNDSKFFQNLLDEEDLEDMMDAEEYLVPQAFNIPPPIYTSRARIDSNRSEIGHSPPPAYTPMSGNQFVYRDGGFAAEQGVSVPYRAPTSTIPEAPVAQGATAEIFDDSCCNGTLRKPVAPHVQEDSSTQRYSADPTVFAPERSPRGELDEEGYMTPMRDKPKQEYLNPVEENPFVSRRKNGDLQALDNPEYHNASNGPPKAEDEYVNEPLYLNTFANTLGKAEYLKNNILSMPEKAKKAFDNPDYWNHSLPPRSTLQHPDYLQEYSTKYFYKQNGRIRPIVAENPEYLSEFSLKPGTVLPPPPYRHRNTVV
MAPKAPK5 (human), sequence (Q8IW41 whole entry, looked up): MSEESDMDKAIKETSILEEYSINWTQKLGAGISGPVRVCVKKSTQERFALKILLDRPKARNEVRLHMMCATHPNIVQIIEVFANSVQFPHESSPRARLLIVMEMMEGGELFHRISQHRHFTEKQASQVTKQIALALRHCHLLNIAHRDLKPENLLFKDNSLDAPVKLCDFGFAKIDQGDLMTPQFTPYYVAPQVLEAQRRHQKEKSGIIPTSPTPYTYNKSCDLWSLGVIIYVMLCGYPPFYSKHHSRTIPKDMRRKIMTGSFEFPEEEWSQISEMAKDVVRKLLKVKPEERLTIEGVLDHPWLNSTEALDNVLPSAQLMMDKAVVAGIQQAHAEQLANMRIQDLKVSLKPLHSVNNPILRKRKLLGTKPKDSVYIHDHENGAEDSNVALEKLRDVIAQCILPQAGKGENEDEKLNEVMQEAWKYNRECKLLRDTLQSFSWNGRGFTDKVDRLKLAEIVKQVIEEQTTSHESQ
MAP2K2 (human), sequence (P36507 whole entry, looked up): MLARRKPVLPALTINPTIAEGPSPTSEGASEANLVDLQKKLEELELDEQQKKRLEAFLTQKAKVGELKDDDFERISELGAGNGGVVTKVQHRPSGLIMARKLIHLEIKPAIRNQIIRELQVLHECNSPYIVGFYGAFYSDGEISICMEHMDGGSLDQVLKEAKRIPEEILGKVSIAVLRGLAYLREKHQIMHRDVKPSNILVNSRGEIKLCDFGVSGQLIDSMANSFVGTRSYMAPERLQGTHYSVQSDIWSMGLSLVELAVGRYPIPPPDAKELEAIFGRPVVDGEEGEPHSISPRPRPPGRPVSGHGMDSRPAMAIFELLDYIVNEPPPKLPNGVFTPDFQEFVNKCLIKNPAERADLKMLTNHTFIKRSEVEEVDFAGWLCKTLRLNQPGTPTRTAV
DYRK2 (human), sequence (Q92630 whole entry, looked up): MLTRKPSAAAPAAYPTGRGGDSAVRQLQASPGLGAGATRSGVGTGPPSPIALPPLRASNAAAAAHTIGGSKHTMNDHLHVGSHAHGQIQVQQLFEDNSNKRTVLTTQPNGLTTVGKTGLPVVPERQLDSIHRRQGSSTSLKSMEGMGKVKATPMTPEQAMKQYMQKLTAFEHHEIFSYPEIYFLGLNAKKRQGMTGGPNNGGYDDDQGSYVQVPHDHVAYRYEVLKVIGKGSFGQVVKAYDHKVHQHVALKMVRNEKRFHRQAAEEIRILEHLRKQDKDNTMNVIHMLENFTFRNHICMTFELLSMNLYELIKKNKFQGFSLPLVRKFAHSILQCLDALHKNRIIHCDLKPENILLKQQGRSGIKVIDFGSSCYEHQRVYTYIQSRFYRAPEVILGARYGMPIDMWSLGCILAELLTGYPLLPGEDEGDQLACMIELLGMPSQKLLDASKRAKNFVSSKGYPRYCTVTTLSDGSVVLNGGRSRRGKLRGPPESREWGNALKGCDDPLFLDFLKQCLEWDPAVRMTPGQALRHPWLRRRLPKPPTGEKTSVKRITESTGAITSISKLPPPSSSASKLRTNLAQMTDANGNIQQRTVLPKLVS
FGFR1 (human), sequence (P11362 whole entry, looked up): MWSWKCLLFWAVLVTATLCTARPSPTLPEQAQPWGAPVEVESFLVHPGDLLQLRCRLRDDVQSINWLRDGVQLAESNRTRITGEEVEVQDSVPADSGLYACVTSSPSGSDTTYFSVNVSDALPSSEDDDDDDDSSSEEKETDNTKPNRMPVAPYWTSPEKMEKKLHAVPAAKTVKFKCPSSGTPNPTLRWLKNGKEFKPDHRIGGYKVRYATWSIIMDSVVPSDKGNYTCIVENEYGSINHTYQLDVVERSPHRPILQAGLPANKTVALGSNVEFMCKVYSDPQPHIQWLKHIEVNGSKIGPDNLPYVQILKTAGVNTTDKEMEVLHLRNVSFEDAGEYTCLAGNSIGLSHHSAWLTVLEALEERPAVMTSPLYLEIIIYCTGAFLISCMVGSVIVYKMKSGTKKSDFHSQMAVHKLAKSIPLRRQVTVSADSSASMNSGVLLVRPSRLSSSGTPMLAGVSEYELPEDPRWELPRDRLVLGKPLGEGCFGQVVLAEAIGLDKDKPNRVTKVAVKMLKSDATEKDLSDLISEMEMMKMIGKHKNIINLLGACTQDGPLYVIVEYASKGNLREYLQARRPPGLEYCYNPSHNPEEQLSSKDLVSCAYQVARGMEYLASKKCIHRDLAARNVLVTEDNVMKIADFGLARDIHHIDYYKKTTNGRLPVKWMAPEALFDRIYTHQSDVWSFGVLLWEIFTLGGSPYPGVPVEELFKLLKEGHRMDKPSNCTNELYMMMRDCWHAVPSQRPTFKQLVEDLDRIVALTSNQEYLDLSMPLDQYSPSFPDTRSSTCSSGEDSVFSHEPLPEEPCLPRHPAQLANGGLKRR
FLT1 (human), sequence (P17948 whole entry, looked up): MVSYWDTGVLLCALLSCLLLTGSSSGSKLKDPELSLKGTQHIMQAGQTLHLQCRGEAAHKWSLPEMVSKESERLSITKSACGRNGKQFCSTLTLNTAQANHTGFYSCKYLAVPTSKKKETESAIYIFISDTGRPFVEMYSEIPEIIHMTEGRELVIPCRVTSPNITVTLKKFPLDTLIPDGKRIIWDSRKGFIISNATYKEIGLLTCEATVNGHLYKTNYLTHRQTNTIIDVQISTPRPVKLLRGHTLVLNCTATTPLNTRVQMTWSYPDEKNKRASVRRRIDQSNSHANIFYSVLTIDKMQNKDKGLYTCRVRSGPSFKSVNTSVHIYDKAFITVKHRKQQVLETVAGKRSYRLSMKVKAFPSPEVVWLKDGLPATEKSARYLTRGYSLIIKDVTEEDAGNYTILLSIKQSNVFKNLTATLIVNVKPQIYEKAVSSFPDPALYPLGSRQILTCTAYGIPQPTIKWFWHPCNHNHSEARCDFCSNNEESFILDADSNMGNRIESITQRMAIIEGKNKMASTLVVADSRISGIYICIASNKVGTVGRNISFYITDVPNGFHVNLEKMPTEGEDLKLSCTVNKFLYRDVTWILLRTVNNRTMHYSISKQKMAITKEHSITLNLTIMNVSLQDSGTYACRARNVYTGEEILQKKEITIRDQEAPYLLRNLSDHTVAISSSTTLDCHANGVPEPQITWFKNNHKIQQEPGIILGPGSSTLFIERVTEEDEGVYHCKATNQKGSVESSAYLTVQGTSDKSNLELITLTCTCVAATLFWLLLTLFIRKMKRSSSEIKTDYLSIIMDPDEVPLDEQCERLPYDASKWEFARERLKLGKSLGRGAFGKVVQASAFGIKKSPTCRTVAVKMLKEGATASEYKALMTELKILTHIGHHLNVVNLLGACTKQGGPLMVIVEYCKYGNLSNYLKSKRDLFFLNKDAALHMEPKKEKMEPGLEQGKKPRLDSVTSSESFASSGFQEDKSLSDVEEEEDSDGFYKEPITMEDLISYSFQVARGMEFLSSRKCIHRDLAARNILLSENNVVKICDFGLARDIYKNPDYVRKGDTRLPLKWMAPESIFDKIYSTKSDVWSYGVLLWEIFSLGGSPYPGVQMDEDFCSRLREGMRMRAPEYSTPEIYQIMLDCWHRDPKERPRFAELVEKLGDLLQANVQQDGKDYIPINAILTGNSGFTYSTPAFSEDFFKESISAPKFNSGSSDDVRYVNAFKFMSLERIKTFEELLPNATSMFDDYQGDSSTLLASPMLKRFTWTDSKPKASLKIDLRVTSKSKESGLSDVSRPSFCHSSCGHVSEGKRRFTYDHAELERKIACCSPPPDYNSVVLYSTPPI

residual activity (BRSK1 (human); compound 100.0 µM): 76%
residual activity (RIPK2 (human); compound 100.0 µM): 46%
residual activity (MAP2K6 (human); compound 100.0 µM): 113%
residual activity (RPS6KA3 KD1 KD2 (human); compound 100.0 µM): 80%
residual activity ([1]; compound 100.0 µM): 52%
residual activity (SRPK1 (human); compound 100.0 µM): 59%
residual activity (PRKCA (human); compound 100.0 µM): 81%
residual activity (PHKG1 (human); compound 100.0 µM): 86%
residual activity (MAPKAPK5 (human); compound 100.0 µM): 70%
residual activity (AURKA (human); compound 100.0 µM): 32%
residual activity (MAPK10 (human); compound 100.0 µM): 100%
residual activity (AURKB (human); compound 100.0 µM): 93%
residual activity (MAP2K2 (human); compound 100.0 µM): 109%
residual activity (ERBB4 (human); compound 100.0 µM): 99%
residual activity ([2]; compound 100.0 µM): 100%
residual activity (PIM3 (human); compound 100.0 µM): 45%
residual activity (BTK (human); compound 100.0 µM): 102%
residual activity (EPHA2 (human); compound 100.0 µM): 89%
residual activity (MELK (human); compound 100.0 µM): 87%
residual activity (MAPKAPK3 (human); compound 100.0 µM): 62%
residual activity (FLT1 (human); compound 100.0 µM): 62%
residual activity (FGFR1 (human); compound 100.0 µM): 59%
residual activity (CDK2 CCNA2 (human); compound 100.0 µM): 94%
residual activity (DYRK2 (human); compound 100.0 µM): 78%
residual activity (CHEK1 (human); compound 100.0 µM): 196%
residual activity (PIM2 (human); compound 100.0 µM): 58%
residual activity (CSNK2A1 (human); compound 100.0 µM): 51%
residual activity (GCK (human); compound 100.0 µM): 80%
residual activity (MAPK12 (human); compound 100.0 µM): 108%
residual activity (TAOK1 (human); compound 100.0 µM): 109%
residual activity (INSRR (human); compound 100.0 µM): 103%
residual activity (MST4 (human); compound 100.0 µM): 67%
residual activity (EEF2K (human); compound 100.0 µM): 92%
residual activity (PRKACA (human); compound 100.0 µM): 90%
residual activity (MINK1 (human); compound 100.0 µM): 62%
SMILES: Cc1cc(N=Nc2cc(S(=O)(=O)O)c(C)cc2C)c(N)cc1O
residual activity (MAPK15 (human); compound 100.0 µM): 65%

residual activity (BRSK1 (human); compound 1.0 µM): 110%
residual activity (BRSK1 (human); compound 10.0 µM): 90%
residual activity (RIPK2 (human); compound 1.0 µM): 94%
residual activity (RIPK2 (human); compound 10.0 µM): 22%
residual activity (MAP2K6 (human); compound 1.0 µM): 104%
residual activity (MAP2K6 (human); compound 10.0 µM): 99%
residual activity (RPS6KA3 KD1 KD2 (human); compound 1.0 µM): 77%
residual activity (RPS6KA3 KD1 KD2 (human); compound 10.0 µM): 44%
residual activity ([1]; compound 1.0 µM): 100%
residual activity ([1]; compound 10.0 µM): 68%
residual activity (SRPK1 (human); compound 1.0 µM): 99%
residual activity (SRPK1 (human); compound 10.0 µM): 48%
residual activity (PRKCA (human); compound 1.0 µM): 76%
residual activity (PRKCA (human); compound 10.0 µM): 30%
residual activity (PHKG1 (human); compound 1.0 µM): 100%
residual activity (PHKG1 (human); compound 10.0 µM): 84%
residual activity (MAPKAPK5 (human); compound 1.0 µM): 104%
residual activity (MAPKAPK5 (human); compound 10.0 µM): 56%
residual activity (AURKA (human); compound 1.0 µM): 103%
residual activity (AURKA (human); compound 10.0 µM): 78%
residual activity (MAPK10 (human); compound 1.0 µM): 105%
residual activity (MAPK10 (human); compound 10.0 µM): 72%
residual activity (AURKB (human); compound 1.0 µM): 84%
residual activity (AURKB (human); compound 10.0 µM): 58%
residual activity (MAP2K2 (human); compound 1.0 µM): 81%
residual activity (MAP2K2 (human); compound 10.0 µM): 75%
residual activity (ERBB4 (human); compound 1.0 µM): 88%
residual activity (ERBB4 (human); compound 10.0 µM): 73%
residual activity ([2]; compound 1.0 µM): 93%
residual activity ([2]; compound 10.0 µM): 90%
residual activity (PIM3 (human); compound 1.0 µM): 79%
residual activity (PIM3 (human); compound 10.0 µM): 21%
residual activity (BTK (human); compound 1.0 µM): 95%
residual activity (BTK (human); compound 10.0 µM): 71%
residual activity (EPHA2 (human); compound 1.0 µM): 94%
residual activity (EPHA2 (human); compound 10.0 µM): 89%
residual activity (MELK (human); compound 1.0 µM): 77%
residual activity (MELK (human); compound 10.0 µM): 62%
residual activity (MAPKAPK3 (human); compound 1.0 µM): 82%
residual activity (MAPKAPK3 (human); compound 10.0 µM): 87%
residual activity (FLT1 (human); compound 1.0 µM): 84%
residual activity (FLT1 (human); compound 10.0 µM): 24%
residual activity (FGFR1 (human); compound 1.0 µM): 105%
residual activity (FGFR1 (human); compound 10.0 µM): 61%
residual activity (CDK2 CCNA2 (human); compound 1.0 µM): 91%
residual activity (CDK2 CCNA2 (human); compound 10.0 µM): 105%
residual activity (DYRK2 (human); compound 1.0 µM): 7%
residual activity (DYRK2 (human); compound 10.0 µM): 2%
residual activity (CHEK1 (human); compound 1.0 µM): 79%
residual activity (CHEK1 (human); compound 10.0 µM): 87%
residual activity (PIM2 (human); compound 1.0 µM): 85%
residual activity (PIM2 (human); compound 10.0 µM): 14%
residual activity (CSNK2A1 (human); compound 1.0 µM): 30%
residual activity (CSNK2A1 (human); compound 10.0 µM): 6%
residual activity (GCK (human); compound 1.0 µM): 78%
residual activity (GCK (human); compound 10.0 µM): 13%
residual activity (MAPK12 (human); compound 1.0 µM): 86%
residual activity (MAPK12 (human); compound 10.0 µM): 65%
residual activity (TAOK1 (human); compound 1.0 µM): 82%
residual activity (TAOK1 (human); compound 10.0 µM): 36%
residual activity (INSRR (human); compound 1.0 µM): 79%
residual activity (INSRR (human); compound 10.0 µM): 26%
residual activity (MST4 (human); compound 1.0 µM): 93%
residual activity (MST4 (human); compound 10.0 µM): 61%
residual activity (EEF2K (human); compound 1.0 µM): 100%
residual activity (EEF2K (human); compound 10.0 µM): 101%
residual activity (PRKACA (human); compound 1.0 µM): 108%
residual activity (PRKACA (human); compound 10.0 µM): 72%
residual activity (MINK1 (human); compound 1.0 µM): 84%
residual activity (MINK1 (human); compound 10.0 µM): 21%
SMILES: NC(=O)c1ccc(-c2ccc(Oc3cncc4sc(-c5nn[nH]n5)cc34)cc2)cc1
residual activity (MAPK15 (human); compound 1.0 µM): 85%
residual activity (MAPK15 (human); compound 10.0 µM): 2%
